Common to all, as to test: DSF 100 kinase selectivity screen;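 also: compound tested at 20 µM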
Common to all, as to type: binding

Test [1] deals with T1, ~100 representative kinases (Homo sapiens, UniProt Q9Y6E0).
T1 construct: Recombinant protein kinase domains with a concentration of 2 μM
To be noted: protein MST3; average of three replicates. Summed up: (§1)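 Each kinase domain, at 2 μM, is mixed with 20 μM test compound and SYPRO Orange in Hepes (20 mM, pH 7.5) with 500 mM NaCl. Temperature is then raised at 3°C/min and fluorescence-monitored unfolding yields the melting temperature change, ΔTm in degrees Celsius.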

Test [2] deals with T2, ~100 representative kinases (Homo sapiens, UniProt P54753).
T2 construct: Recombinant protein kinase domains with a concentration of 2 μM
T2 sequence (P54753 34-998): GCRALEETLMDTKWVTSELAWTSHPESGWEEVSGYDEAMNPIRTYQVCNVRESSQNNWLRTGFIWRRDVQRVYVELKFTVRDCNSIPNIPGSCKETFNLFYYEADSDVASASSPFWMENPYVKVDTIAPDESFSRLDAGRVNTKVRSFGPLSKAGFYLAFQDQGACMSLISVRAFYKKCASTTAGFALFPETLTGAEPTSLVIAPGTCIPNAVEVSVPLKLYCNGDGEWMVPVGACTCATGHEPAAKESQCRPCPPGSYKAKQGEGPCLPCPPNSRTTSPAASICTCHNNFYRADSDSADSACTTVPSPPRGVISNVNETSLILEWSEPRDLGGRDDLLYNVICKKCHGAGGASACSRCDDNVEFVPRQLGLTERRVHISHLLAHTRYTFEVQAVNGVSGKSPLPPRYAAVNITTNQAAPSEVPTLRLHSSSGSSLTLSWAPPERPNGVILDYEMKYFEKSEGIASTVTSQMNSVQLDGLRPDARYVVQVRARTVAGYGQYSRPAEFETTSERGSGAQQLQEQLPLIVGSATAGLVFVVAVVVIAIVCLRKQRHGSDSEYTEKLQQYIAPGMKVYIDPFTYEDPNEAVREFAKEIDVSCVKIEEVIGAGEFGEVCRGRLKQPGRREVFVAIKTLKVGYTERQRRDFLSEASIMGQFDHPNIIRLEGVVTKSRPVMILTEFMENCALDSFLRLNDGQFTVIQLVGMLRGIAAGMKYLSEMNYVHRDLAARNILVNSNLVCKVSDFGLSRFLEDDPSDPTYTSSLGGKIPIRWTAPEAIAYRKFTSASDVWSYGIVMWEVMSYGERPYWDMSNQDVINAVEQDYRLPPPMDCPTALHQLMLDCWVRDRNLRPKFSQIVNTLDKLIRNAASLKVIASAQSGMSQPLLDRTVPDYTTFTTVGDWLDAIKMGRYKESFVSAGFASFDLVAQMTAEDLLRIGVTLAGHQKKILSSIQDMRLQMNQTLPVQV
As to conditions: Protein EPHB3A; average of three replicates. An outline of the steps:
as §1

Test [3] has as its target T3, ~100 representative kinases (Homo sapiens, UniProt O15075).
T3 construct: Recombinant protein kinase domains with a concentration of 2 μM
To be noted: Protein DCAMKL1; average of three replicates. An outline of the steps:
as §1

For test [4], the target named is T4, ~100 representative kinases (Homo sapiens, UniProt P19784).
T4 construct: Recombinant protein kinase domains with a concentration of 2 μM
T4 sequence (P19784 whole entry, the tested form may be a part): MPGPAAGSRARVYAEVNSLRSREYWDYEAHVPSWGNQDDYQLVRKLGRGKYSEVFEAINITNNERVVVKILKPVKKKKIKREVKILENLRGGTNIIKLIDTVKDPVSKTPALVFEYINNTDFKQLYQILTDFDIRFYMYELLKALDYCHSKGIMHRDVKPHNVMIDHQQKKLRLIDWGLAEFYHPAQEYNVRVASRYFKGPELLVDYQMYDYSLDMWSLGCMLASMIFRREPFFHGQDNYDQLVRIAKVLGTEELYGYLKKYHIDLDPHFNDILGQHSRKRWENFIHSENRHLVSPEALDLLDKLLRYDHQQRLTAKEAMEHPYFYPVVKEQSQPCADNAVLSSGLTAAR
As to conditions: Protein CK2A2; average of three replicates. An outline of the steps: as §1

Test [5] has as its target T5, ~100 representative kinases (Homo sapiens, UniProt P11362).
T5 construct: Recombinant protein kinase domains with a concentration of 2 μM
As to conditions: protein FGFR1; average of three replicates. An outline of the steps: as §1

Test [6] addresses T6, ~100 representative kinases (Homo sapiens, UniProt Q16539).
T6 construct: Recombinant protein kinase domains with a concentration of 2 μM
An outline of the steps:
as §1

In test [7] the target is T7, ~100 representative kinases (Homo sapiens, UniProt Q13043).
T7 construct: Recombinant protein kinase domains with a concentration of 2 μM
T7 sequence (Q13043 1-487): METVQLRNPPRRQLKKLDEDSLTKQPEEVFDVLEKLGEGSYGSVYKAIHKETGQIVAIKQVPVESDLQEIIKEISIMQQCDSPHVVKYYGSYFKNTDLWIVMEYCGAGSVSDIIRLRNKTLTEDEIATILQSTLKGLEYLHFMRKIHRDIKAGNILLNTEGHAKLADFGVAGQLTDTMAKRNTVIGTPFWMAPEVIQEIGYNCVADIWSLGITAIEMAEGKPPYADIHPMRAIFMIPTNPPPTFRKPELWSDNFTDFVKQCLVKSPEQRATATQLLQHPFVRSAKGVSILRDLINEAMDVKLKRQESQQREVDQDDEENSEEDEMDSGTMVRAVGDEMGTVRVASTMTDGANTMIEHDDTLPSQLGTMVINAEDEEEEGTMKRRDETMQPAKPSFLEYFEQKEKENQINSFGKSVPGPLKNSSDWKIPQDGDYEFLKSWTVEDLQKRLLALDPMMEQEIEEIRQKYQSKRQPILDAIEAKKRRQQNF
To be noted: Protein STK4; DSF; average of three replicates. Summed up:
as §1

The mark [8] stands for this setting: protein MAPK14, average of three replicates.

We go through 16 compounds from article PMC12136037, “Type II kinase inhibitors that target Parkinson’s disease–associated LRRK2” (Science Advances, 2025).

Each structure is given as a SMILES string. Where two headings read alike, the source gives them in different places.

T3 sequence (O15075 whole entry, the tested form may be a part): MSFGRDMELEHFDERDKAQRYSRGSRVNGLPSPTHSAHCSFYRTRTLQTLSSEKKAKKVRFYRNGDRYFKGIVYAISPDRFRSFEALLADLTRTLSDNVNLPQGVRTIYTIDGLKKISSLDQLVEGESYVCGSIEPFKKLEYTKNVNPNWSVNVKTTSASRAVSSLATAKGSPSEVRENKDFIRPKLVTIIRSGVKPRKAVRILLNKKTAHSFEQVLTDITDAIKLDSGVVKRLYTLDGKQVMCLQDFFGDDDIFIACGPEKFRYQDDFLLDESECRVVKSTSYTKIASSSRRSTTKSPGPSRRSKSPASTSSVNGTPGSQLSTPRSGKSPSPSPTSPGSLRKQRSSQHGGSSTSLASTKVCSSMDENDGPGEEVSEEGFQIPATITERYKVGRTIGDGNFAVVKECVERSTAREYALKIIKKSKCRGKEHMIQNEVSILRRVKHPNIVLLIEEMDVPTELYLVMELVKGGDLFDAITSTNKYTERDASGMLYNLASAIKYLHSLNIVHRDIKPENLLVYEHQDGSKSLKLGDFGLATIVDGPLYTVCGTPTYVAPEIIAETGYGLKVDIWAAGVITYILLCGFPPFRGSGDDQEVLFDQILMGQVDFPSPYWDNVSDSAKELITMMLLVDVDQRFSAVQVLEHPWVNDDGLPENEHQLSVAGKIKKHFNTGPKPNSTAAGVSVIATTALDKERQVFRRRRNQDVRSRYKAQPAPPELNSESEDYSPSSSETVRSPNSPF
T6 sequence (Q16539 whole entry, the tested form may be a part): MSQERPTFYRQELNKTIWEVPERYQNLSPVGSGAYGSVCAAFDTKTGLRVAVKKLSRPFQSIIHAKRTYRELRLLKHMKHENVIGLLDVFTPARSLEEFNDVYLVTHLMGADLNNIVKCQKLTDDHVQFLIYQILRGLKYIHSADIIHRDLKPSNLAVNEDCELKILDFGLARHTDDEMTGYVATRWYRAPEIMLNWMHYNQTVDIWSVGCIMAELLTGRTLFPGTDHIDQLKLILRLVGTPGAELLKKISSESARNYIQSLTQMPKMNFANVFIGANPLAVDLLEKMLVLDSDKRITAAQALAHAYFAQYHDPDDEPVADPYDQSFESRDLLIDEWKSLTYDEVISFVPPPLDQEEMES
T5 sequence (P11362 22-822): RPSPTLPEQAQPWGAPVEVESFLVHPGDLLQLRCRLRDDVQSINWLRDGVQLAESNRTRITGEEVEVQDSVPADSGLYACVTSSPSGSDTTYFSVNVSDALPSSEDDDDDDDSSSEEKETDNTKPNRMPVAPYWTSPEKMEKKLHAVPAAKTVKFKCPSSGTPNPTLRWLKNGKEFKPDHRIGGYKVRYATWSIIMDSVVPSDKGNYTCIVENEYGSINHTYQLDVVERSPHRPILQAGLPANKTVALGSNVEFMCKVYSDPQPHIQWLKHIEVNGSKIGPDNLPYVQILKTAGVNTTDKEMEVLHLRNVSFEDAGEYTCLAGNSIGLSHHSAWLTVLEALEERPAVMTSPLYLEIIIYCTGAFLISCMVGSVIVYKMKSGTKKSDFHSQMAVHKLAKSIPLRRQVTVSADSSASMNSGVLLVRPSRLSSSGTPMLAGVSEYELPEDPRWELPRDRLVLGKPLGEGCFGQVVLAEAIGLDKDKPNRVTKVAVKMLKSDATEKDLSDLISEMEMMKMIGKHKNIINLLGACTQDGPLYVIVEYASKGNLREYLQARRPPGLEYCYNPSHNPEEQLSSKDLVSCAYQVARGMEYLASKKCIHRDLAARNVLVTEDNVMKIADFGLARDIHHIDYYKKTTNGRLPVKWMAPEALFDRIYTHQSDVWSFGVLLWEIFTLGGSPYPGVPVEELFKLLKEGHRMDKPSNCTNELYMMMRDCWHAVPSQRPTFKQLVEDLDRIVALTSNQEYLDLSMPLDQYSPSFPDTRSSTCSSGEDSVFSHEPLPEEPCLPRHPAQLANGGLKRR
T1 sequence (Q9Y6E0 whole entry, the tested form may be a part): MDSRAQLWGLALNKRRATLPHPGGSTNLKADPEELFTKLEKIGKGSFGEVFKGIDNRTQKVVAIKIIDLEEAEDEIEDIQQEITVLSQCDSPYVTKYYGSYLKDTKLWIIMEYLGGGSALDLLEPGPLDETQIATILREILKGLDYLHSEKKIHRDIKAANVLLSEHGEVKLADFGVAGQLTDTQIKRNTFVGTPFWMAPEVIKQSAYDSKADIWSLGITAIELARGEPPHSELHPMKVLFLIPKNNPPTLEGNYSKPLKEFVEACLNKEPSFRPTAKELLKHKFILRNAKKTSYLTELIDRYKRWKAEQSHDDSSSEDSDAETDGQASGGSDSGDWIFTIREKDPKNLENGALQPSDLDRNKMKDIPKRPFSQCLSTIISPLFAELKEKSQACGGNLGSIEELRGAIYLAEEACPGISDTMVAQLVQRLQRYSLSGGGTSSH

`COc1cc(C(=O)N2CCOCC2)c(F)cc1Nc1nc(N(C)C)c2c(Cl)c[nH]c2n1` [Compound 36]: the dTm in test [1] was -3.75 K; in test [2] it was -1.35 K; in test [3] it was 2.05 K; in test [4] it was 1.00 K; in test [5], -0.10 K; in test [6] (setting [8]), -0.75 K. In addition, the dTm in test [7] was -1.57 K.

Regarding `COc1cc2c(Oc3ccc(NC(=O)C4(C(=O)Nc5ccc(F)cc5)CC4)cc3F)ccnc2cc1OCCCN1CCOCC1` [Foretinib, reference compound], the dTm in test [1] turned out to be 4.06 K; in test [2] it was 13.52 K; in test [3], 0.55 K; in test [4], 0.00 K; in test [5] it was 5.33 K; in test [6], 6.85 K. For the same compound, the dTm in test [7] worked out at 8.95 K.

For the compound `Cc1ccc(-n2nc(C(C)(C)C)cc2NC(=O)Nc2cccc(-c3c[nH]c4nc(Cl)nc(N5CCOCC5)c34)c2)cc1` [Compound 30], the dTm in test [1] is 0.96 K; in test [2], 0.0373 K; in test [3] it was 2.36 K; in test [4], -4.20 K; in test [5], 1.65 K; in test [6] (setting [8]) it was 2.81 K. In addition, in test [7], the dTm amounted to 4.23 K.

As to `CC(C)(C)c1cccc(NC(=O)C2(C(=O)Nc3cccc(-c4c[nH]c5ncnc(N6CCOCC6)c45)c3)CC2)c1` [Compound 22], the dTm in test [1] stood at 0.95 K; in test [2] it was 0.59 K; in test [3], 3.75 K; in test [4] it was 2.45 K; in test [5], 1.53 K; in test [6] (setting [8]), 0.60 K. The compound further had a dTm in test [7] of 5.49 K.

With `COc1ccc(NC(=O)C2(C(=O)Nc3cccc(-c4c[nH]c5ncnc(N6CCOCC6)c45)c3)CC2)cc1` [Compound 16], the dTm in test [1] is 1.58 K; in test [2], 0.59 K; in test [3] it was -1.88 K; in test [4] it was 4.77 K; in test [5], 0.70 K; in test [6] (setting [8]), -0.16 K. Further, in test [7], the dTm is given as 2.68 K.

Consider `CC(=O)N1CCN(c2nc(Cl)nc3[nH]cc(-c4cccc(NC(=O)Nc5cc(C(C)(C)C)nn5-c5ccc(C)cc5)c4)c23)CC1` [Compound 31], for which the dTm is recorded as 3.03 K in test [1]; -1.56 K in test [2]; 2.11 K in test [3]; -3.51 K in test [4]; 1.76 K in test [5]; 3.92 K in test [6] (setting [8]). The compound further came in with a dTm in test [7] of 4.59 K.

Take `Cc1cc(NC(=O)C2(C(=O)Nc3ccc(F)cc3)CC2)cc(-c2c[nH]c3ncnc(N4CCOCC4)c23)c1` [Compound 6]: the dTm in test [1] is listed as -0.29 K; in test [2] it was 0.34 K; in test [3], 3.01 K; in test [4] it was 2.54 K; in test [5] it was 0.32 K; in test [6] (setting [8]), 1.61 K. In test [7], the dTm was found to be 0.00 K.

`O=C(Nc1cccc(-c2c[nH]c3ncnc(N4CCOCC4)c23)c1)C1(C(=O)Nc2ccc(F)c(Br)c2F)CC1` [Compound 26]: the dTm in test [1] is 3.50 K; in test [2], -0.51 K; in test [3], 3.55 K; in test [4], 4.72 K; in test [5], 0.99 K; in test [6] (setting [8]), 2.01 K. The same compound showed a dTm in test [7] of 0.00 K.

As to `O=C(Nc1cccc(-c2c[nH]c3ncnc(N4CCOCC4)c23)c1)C1(C(=O)Nc2cccc3c2CCC3)CC1` [Compound 11], the dTm in test [1] is reported as -2.04 K; in test [2], 0.28 K; in test [3], 2.70 K; in test [4], 1.05 K; in test [5], 0.52 K; in test [6] (setting [8]), 1.60 K. In test [7], the dTm is on record as -11.70 K.

For the compound `Cn1cc(-c2c[nH]c3ncnc(N4CCOCC4)c23)cc1C#N` [PFE-360], the dTm in test [1] was found to be 2.72 K; in test [2], 0.07 K; in test [3], 0.62 K; in test [4], 0.26 K; in test [5], 0.13 K; in test [6] (setting [8]), 0.53 K. In addition, the dTm in test [7] is 4.12 K.

`C[C@@H]1CN(c2cc(-c3n[nH]c4ccc(OC5(C)CC5)cc34)ncn2)C[C@H](C)O1` [MLi2]: the dTm in test [1] is 0.43 K; in test [2], 0.06 K; in test [3], 0.51 K; in test [4], -0.31 K; in test [5], -0.19 K; in test [6] (setting [8]), 0.038 K. Besides, in test [7], the dTm was -0.67 K.

Take `O=C(Nc1ccc(F)cc1)C1(C(=O)Nc2cccc(-c3c[nH]c4ncnc(N5CCOCC5)c34)c2)CC1` [Compound 2]: the dTm is 7.19 K in test [1]; 2.82 K in test [2]; 1.25 K in test [3]; 6.40 K in test [4]; 1.19 K in test [5]; 0.08 K in test [6] (setting [8]). In addition, the dTm in test [7] amounted to 5.05 K.

In the case of `CCSc1nc(NC)c2c(-c3cccc(NC(=O)Nc4cc(C(C)(C)C)nn4-c4ccc(C)cc4)c3)c[nH]c2n1` [Compound 32], the dTm was -1.49 K in test [1]; -3.33 K in test [2]; 0.67 K in test [3]; -0.62 K in test [4]; 0.60 K in test [5]; 5.12 K in test [6] (setting [8]). For the same compound, the dTm in test [7] was 0.80 K.

As to `O=C(Nc1cccc(-c2c[nH]c3ncnc(N4CCOCC4)c23)c1)C1(C(=O)Nc2ccc(F)c(Br)c2)CC1` [Compound 19], the dTm in test [1] was 3.29 K; in test [2], 1.12 K; in test [3], 4.80 K; in test [4] it was 7.91 K; in test [5], 1.26 K; in test [6] (setting [8]), 3.30 K. Also, in test [7], the dTm was found to be 0.00 K.

With `COc1cc(NC(=O)C2(C(=O)Nc3cccc(-c4c[nH]c5ncnc(N6CCOCC6)c45)c3)CC2)ccc1F` [Compound 21], the dTm in test [1] stood at 6.57 K; in test [2], 0.65 K; in test [3] it was 1.25 K; in test [4] it was 3.16 K; in test [5] it was 1.39 K; in test [6] (setting [8]) it was 0.76 K. Also, the dTm in test [7] is reported as 3.89 K.

For `Cc1cc(NC(=O)C2(C(=O)Nc3cccc(-c4c[nH]c5ncnc(N6CCOCC6)c45)c3)CC2)ccc1F` [Compound 20], the dTm is 8.98 K in test [1]; 3.99 K in test [2]; 2.29 K in test [3]; 1.33 K in test [4]; 2.46 K in test [5]; 1.97 K in test [6] (setting [8]). The dTm in test [7] is reported as 7.44 K.
